Results as given in patent US7786083B2, “Metastin derivatives and use thereof” (Takeda Pharmaceutical Company Limited, priority 2006, dated 2010).
*1 amine or outer side, *2 acyl side, *3 side chain or, on linkers, in order; H or OH if unused. Where a SMILES comes first, the peptide text is derived from it. Where no end group is shown, it is not given here. [ ]: non-standard residue; d: D form. Pro(trans-4-F) = O=C(O)[C@@H]1C[C@@H](F)CN1; 2Nal = N[C@@H](Cc1ccc2ccccc2c1)C(=O)O; X1 = CC(C)C[C@H](CCCN[*:1])C(=O)[*:2]; Arg(Me) = CNC(=N)NCCC[C@H](N)C(=O)O; Dap(CONH2) = NC(=O)NC[C@H](N)C(=O)O; Ala(cPr) = N[C@@H](CC1CC1)C(=O)O; Hyp = O=C(O)[C@@H]1C[C@@H](O)CN1; Cha = N[C@@H](CC1CCCCC1)C(=O)O; Dap = NC[C@H](N)C(=O)O

What follows are molecules tested on metastin receptors (assay: Measurement of agonist activity by assaying changes in intracellular calcium ion level (FLIPR, Fluo-4 NW)). Conditions: specific activity of the EC50 of a test compound based on the EC50 of Metastin (45-54), metastin receptor expression CHO cells.
Assay type: cell-based, human
Procedure, shortened: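 CHO/dhfr⁻ cells stably expressing human or rat metastin receptor, seeded 3×10^4/well for 24 h, loaded with Fluo-4 NW 30 min at 37 °C in HBSS with 0.1% BSA, 20 mM HEPES pH 7.4 and 1 mM probenecid. Compound-stimulated intracellular calcium change read on FLIPR.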

Molecule	Specific Activity
CNC(=N)NCCC[C@H](NC(=O)[C@H](CC1CC1)NC(=O)CNC(=O)[C@H](CC1CCCCC1)NC(=O)[C@@H](NC(=O)[C@H](CNC(N)=O)NC(=O)[C@@H]1C[C@@H](O)CN1C(=O)[C@@H](Cc1ccc(O)cc1)NC(C)=O)[C@@H](C)O)C(=O)N[C@@H](Cc1c[nH]c2ccccc12)C(N)=O [Compound No. 953, des(1)-Ac-[D-Tyr2,Hyp3,Alb4,Thr5,Cha6,Ala(cPr)8,Arg(Me)9,Trp10]MS10] (Ac-[dY][Hyp][Dap(CONH2)]T[Cha]G[Ala(cPr)][Arg(Me)]W-NH2)	0.5
CC(=O)N[C@H](Cc1ccc(O)cc1)C(=O)N1C[C@H](O)C[C@H]1C(=O)N[C@@H](CC(N)=O)C(=O)N[C@H](C(=O)N[C@@H](CC1CCCCC1)C(=O)NCCC[C@@H](CC(C)C)C(=O)N[C@@H](CCCNC(=N)N)C(=O)N[C@@H](Cc1c[nH]c2ccccc12)C(N)=O)[C@@H](C)O [Compound No. 956, des(1)-Ac-[D-Tyr2,Hyp3,Thr5,Cha6,Gly7Ψ(CH2CH2)Leu8,Trp10]MS10] (Ac-[dY][Hyp]NT[Cha][X1]RW-NH2)	1.1
des(1)-Ac-[D-Tyr2,Hyp3,Alb4,Ala5,Cha6,Ala(cPr)8,Arg(Me)9,Trp10]MS10 (Ac-[dY][Hyp][Dap(CONH2)]A[Cha]G[Ala(cPr)][Arg(Me)]W-NH2; SMILES CNC(=N)NCCC[C@H](NC(=O)[C@H](CC1CC1)NC(=O)CNC(=O)[C@H](CC1CCCCC1)NC(=O)[C@H](C)NC(=O)[C@H](CNC(N)=O)NC(=O)[C@@H]1C[C@@H](O)CN1C(=O)[C@@H](Cc1ccc(O)cc1)NC(C)=O)C(=O)N[C@@H](Cc1c[nH]c2ccccc12)C(N)=O) [Compound No. 947]	0.5
des(1)-Ac-[D-Tyr2,Hyp3,Thr5,Nal(2)6,Arg(Me)9,Trp10]MS10 (Ac-[dY][Hyp]NT[2Nal]GL[Arg(Me)]W; ends and bridges not checked) [Compound No. 919]	1.0
des(1)-Ac-[D-Tyr2,Pro(4F)3,Thr5,Cha6,Ala(cPr)8,Arg(Me)9,Trp10]MS10 (Ac-[dY][Pro(trans-4-F)]NT[Cha]G[Ala(cPr)][Arg(Me)]W-NH2; SMILES CNC(=N)NCCC[C@H](NC(=O)[C@H](CC1CC1)NC(=O)CNC(=O)[C@H](CC1CCCCC1)NC(=O)[C@@H](NC(=O)[C@H](CC(N)=O)NC(=O)[C@@H]1C[C@@H](F)CN1C(=O)[C@@H](Cc1ccc(O)cc1)NC(C)=O)[C@@H](C)O)C(=O)N[C@@H](Cc1c[nH]c2ccccc12)C(N)=O) [Compound No. 959]	0.4

Now from value to molecule:

Specific Activity	Molecule
0.7	CNC(=N)NCCC[C@H](NC(=O)[C@H](CC1CC1)NC(=O)CNC(=O)[C@H](CC1CCCCC1)NC(=O)CNC(=O)[C@H](CNC(N)=O)NC(=O)[C@@H]1C[C@@H](O)CN1C(=O)[C@@H](Cc1ccc(O)cc1)NC(C)=O)C(=O)N[C@@H](Cc1c[nH]c2ccccc12)C(N)=O [Compound No. 949, des(1)-Ac-[D-Tyr2,Hyp3,Alb4,Gly5,Cha6,Ala(cPr)8,Arg(Me)9,Trp10]MS10] (Ac-[dY][Hyp][Dap(CONH2)]G[Cha]G[Ala(cPr)][Arg(Me)]W-NH2)
0.7	CNC(=N)NCCC[C@H](NC(=O)[C@H](CC1CC1)NC(=O)CNC(=O)[C@H](CC1CCCCC1)NC(=O)[C@H](CN)NC(=O)[C@H](CNC(N)=O)NC(=O)[C@@H]1C[C@@H](O)CN1C(=O)[C@@H](Cc1ccc(O)cc1)NC(C)=O)C(=O)N[C@@H](Cc1c[nH]c2ccccc12)C(N)=O [Compound No. 951, des(1)-Ac-[D-Tyr2,Hyp3,Alb4,Dap5,Cha6,Ala(cPr)8,Arg(Me)9,Trp10]MS10] (Ac-[dY][Hyp][Dap(CONH2)][Dap][Cha]G[Ala(cPr)][Arg(Me)]W-NH2)
1.3	CC(=O)N[C@H](Cc1ccc(O)cc1)C(=O)N1C[C@H](O)C[C@H]1C(=O)N[C@@H](CNC(N)=O)C(=O)N[C@H](C(=O)N[C@@H](CC1CCCCC1)C(=O)NCCC[C@@H](CC(C)C)C(=O)N[C@@H](CCCNC(=N)N)C(=O)N[C@@H](Cc1c[nH]c2ccccc12)C(N)=O)[C@@H](C)O [Compound No. 952, des(1)-Ac-[D-Tyr2,Hyp3,Alb4,Thr5,Cha6,Gly7Ψ(CH2CH2)Leu8,Trp10]MS10] (Ac-[dY][Hyp][Dap(CONH2)]T[Cha][X1]RW-NH2)
1.1	CNC(=N)NCCC[C@H](NC(=O)[C@@H](CCCNC(=O)[C@H](CC1CCCCC1)NC(=O)[C@@H](NC(=O)[C@H](CNC(N)=O)NC(=O)[C@@H]1C[C@@H](O)CN1C(=O)[C@@H](Cc1ccc(O)cc1)NC(C)=O)[C@@H](C)O)CC(C)C)C(=O)N[C@@H](Cc1c[nH]c2ccccc12)C(N)=O [Compound No. 957, des(1)-Ac-[D-Tyr2,Hyp3,Alb4,Thr5,Cha6,Gly7Ψ(CH2CH2)Leu8,Arg(Me)9,Trp10]MS10] (Ac-[dY][Hyp][Dap(CONH2)]T[Cha][X1][Arg(Me)]W-NH2)
0.6	CNC(=N)NCCC[C@H](NC(=O)[C@H](CC(C)C)NC(=O)NCC[C@H](Cc1ccccc1)NC(=O)[C@@H](NC(=O)[C@H](CC(N)=O)NC(=O)[C@@H]1C[C@@H](O)CN1C(=O)[C@@H](Cc1ccc(O)cc1)NC(C)=O)[C@@H](C)O)C(=O)N[C@@H](Cc1c[nH]c2ccccc12)C(N)=O [Compound No. 968, des(1)-Ac-[D-Tyr2,Hyp3,Thr5,Phe6Ψ(CH2CH2)AzaGly7,Arg(Me)9,Trp10)MS10]
2.9	des(1)-Ac-[D-Tyr2,Hyp3,Thr5,Gly7Ψ(CH2NH)Leu8,Arg(Me)9,Trp10]MS10 (Ac-[dY][Hyp]NTFGL[Arg(Me)]W-NH2; also: -CONH- between Gly and Leu replaced by -CH2NH-) [Compound No. 854]
